This is an account of results in patent US4808718A, “Fused polycyclic and bridged compounds useful as calcium channel blockers” (Merck & Co., Inc., priority 1986, dated 1989).

For the assay, the target named is T1, nitrendipine binding (purified sarcolemal vesicles) (Homo sapiens, UniProt Q13936).
T1 construct: purified sarcolemal vesicles in 50 mM tris-HCl; from tissue
Briefly: nitrendipine binding assay ([^3 H] nitrendipine, purified sarcolemal vesicles). Here is the method:
As stated earlier, the compounds of the present invention have a property that enables them to be used as calcium entry blockers in the treatment of cardiovascular disorders.
In a representative assay, […] of purified sarcolemal vesicles in 50 mM tris-HCl, 10 uM calcium chloride, and […] magnesium chloride at pH 7.4 were incubated with […] [^3 H] nitrendipine (78 Ci/mmol) with or without test compound in a final volume of […] for 3 hours at 25° C. The inhibition constant Ki is determined according to the following equation: [formula] where I50 is the compound concentration that produces 50 percent inhibiton of binding, [L] is ligand concentration, and kd is the affinity constant of the ligand.

[1] abbreviates: purified sarcolemal vesicles, 50 mM tris-HCl, pH 7.4, 0.23 mM [^3 H] nitrendipine, 3 hours at 25° C., read-out: Ki, Inhibition of Nitrendipine Binding.

Molecules are shown by their SMILES. Like-named read-outs stand apart in the source and are kept apart here.

T1 sequence (Q13936 whole entry): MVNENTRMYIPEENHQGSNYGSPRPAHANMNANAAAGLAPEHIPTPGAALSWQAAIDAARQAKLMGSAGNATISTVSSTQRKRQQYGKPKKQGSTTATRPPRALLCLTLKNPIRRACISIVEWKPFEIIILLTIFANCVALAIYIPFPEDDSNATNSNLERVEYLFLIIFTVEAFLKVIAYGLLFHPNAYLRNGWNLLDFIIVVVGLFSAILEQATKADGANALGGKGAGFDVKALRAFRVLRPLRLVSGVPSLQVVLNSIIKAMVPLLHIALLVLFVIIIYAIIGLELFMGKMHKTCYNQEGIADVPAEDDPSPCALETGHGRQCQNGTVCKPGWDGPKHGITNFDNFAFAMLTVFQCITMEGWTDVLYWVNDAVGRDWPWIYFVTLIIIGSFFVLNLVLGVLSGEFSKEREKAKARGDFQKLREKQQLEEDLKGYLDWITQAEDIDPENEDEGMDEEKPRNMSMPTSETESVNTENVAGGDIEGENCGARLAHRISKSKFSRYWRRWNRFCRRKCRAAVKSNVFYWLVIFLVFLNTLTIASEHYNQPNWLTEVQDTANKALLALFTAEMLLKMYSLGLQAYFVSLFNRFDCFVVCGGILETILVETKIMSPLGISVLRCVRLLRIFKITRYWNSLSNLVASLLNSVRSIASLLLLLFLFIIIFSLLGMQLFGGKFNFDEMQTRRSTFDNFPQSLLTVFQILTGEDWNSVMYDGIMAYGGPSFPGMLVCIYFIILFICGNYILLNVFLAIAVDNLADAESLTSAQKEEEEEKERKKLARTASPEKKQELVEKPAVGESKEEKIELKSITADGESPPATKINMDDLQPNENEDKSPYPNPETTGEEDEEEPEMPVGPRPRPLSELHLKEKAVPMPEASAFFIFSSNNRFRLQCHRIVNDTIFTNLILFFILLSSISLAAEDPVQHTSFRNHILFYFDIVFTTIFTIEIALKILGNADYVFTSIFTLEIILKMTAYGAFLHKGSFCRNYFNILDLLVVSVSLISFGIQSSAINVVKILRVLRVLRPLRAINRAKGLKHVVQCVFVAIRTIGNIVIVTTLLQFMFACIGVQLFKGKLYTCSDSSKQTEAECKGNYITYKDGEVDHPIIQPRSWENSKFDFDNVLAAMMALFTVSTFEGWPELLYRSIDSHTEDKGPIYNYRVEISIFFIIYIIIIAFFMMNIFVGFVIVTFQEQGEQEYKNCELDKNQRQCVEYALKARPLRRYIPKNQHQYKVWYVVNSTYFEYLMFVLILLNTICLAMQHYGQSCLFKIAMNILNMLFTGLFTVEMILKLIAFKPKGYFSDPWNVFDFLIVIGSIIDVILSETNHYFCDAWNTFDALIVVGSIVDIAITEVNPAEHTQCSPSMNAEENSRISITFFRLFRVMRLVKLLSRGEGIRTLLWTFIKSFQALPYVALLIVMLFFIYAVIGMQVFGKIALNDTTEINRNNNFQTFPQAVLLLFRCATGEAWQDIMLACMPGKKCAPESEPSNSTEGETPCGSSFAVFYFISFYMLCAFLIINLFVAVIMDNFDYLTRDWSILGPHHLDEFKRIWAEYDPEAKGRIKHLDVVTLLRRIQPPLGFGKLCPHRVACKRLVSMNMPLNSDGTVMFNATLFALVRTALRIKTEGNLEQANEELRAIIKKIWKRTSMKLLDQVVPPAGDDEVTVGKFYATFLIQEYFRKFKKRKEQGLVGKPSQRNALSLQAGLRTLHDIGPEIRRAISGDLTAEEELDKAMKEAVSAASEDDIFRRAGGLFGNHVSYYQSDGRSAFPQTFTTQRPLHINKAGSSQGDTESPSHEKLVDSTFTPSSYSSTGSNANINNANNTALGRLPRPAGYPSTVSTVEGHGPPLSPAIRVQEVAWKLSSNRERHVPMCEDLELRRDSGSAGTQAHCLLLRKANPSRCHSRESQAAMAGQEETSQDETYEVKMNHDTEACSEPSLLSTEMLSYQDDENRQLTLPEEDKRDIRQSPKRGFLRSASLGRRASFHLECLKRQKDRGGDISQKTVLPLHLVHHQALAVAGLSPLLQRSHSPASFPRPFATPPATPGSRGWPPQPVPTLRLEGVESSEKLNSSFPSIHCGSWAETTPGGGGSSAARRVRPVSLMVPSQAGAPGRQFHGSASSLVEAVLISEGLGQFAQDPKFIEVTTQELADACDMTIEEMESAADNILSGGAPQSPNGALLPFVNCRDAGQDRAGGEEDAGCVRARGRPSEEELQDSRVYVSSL
T1 sequence (P54289 25-944 partner limits assumed): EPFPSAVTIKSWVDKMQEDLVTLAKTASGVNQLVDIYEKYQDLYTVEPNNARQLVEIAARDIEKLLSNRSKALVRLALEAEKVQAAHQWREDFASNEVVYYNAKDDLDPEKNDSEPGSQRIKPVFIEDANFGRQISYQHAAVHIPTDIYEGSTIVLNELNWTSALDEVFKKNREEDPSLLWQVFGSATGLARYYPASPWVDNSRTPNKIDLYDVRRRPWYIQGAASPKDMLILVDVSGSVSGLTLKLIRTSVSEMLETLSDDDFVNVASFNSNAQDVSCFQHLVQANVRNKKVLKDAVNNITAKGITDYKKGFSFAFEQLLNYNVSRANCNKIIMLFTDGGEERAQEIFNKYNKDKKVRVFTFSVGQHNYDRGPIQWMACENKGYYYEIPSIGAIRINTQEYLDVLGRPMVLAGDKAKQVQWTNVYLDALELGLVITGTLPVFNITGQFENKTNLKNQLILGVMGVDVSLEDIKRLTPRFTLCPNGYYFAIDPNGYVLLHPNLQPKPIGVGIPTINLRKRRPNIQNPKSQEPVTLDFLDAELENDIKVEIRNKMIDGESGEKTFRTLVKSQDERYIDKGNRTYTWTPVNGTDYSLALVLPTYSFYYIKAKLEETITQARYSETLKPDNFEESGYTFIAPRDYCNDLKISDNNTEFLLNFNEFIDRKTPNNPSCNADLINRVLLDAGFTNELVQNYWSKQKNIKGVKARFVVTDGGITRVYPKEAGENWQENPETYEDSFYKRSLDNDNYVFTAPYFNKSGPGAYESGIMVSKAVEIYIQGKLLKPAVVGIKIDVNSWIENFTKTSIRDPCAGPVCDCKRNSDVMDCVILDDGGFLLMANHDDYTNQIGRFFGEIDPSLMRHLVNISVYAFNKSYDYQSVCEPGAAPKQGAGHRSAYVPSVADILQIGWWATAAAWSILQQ
T1 sequence (P54289 945-1103 partner limits assumed): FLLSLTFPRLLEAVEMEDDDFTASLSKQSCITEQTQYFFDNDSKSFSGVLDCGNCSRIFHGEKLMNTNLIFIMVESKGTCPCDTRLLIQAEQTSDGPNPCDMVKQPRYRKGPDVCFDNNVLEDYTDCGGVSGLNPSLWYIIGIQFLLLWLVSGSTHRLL
T1 sequence (Q08289 whole entry partner): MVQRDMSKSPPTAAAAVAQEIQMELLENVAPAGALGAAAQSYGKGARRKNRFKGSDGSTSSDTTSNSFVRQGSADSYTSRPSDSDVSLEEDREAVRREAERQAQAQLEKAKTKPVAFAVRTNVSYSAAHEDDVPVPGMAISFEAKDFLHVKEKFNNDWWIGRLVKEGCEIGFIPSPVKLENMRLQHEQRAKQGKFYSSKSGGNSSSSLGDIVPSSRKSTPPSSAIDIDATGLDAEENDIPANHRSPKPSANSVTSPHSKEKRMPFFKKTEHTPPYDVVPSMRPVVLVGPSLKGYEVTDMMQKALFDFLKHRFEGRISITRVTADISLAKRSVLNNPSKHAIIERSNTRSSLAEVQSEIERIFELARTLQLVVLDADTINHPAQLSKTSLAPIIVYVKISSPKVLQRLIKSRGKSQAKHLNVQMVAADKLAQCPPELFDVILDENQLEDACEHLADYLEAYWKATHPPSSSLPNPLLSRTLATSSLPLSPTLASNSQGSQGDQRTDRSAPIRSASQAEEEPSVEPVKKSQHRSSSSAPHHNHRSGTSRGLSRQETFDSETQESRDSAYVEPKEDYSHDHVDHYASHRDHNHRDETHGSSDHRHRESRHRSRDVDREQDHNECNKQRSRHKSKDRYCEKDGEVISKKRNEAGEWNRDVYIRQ

Broadly, the Ki is the dissociation constant of the complex between target and ligand, obtained from inhibition or displacement. In turn, `COC(=O)C1C(c2ccccc2)C2(C(=O)OC)C(C)=NC1(C)CC2C[Si](C)(C)C` (stereo not drawn) [Example 1, Dimethyl 1,3-dimethyl-5-phenyl-8-[(trimethylsilyl)methyl]-2-azabicyclo[2.2.2]oct-2-ene-4,6-dicarboxylate] showed a Ki of 17 µM.

Consider `COC(=O)C1C(c2ccccc2)C2(C(=O)OC)C(C)=NC1(C)CC2c1ccccc1` (stereo not drawn) [Example 2], for which the inhibition constant (Ki) under setting [1] stood at 34 µM.

With `COC(=O)C1C(c2ccccc2)C2(C(=O)OC)C(C)=NC1(C)C1CC=CC12` (stereo not drawn) [Example 3, Dimethyl 1,4A,7,8A-tetrahydro-1,3-dimethyl-8-phenyl-1,4-ethano-4H-2-azetidinyl-4,9-dicarboxylate], the Ki under setting [1] amounted to 61 µM.
